Results from patent EP0390515A1, “Novel adenine derivatives and their use as agents for increasing crop yields” (MITSUBISHI GAS CHEMICAL COMPANY, INC., priority 1989, dated 1990).
Values after ≈ are worked out from the molar mass of the structure shown. Read-outs that look alike come from different tables or passages of the source.

How the values were obtained:
[1] = test system: glycine (soybean) hypocotyl section; experiment: Assay for cytokinin activity according to glycine (soybean) hypocotyl section growth test (callus weight); format: cell-based, Soybean (var.: Enrei); settings: Miller's medium with 2,4-D, dark, 30°C, about one month
Procedure: Soybean seeds (var.: Enrei) were disinfected with antiformin containing 0.7% effective chlorine for 4 minutes and washed thrice with sterilized water.
Agar (15 ml, 1.6%) was put in a test tube 2.5 cm in diameter. A groove was cut by forceps on the surface of the agar and two soybean seeds treated as above were placed in this groove and kept in the dark at 30°C for 5 days.
In a glass tubular bottle 26 mm in inner diameter was put Miller's medium, to which a given concentration of the candidate compound, benzyladenine or zeatin and […] of 2,4-D were added. The central portion of hypocotyl budding out from the above seeds was cut off to give a section 1 mm thick. Four of the sections as one group were transplanted to the Miller's medium. This was placed in the dark at 30°C for about one month and then the weight of callus formed was measured. For untreated group, the Miller's medium containing 9 mg/l of 2,4-D was used.

[2] = test system: pig weed (Amaranthus caudatus); experiment: Assay of cytokinin activity to promote synthesis of betacyanin by pig weed cotyledon sections; format: cell-based; settings: 27°C, 20 hours, dark
Procedure: Two sheets of filter paper were put double in a plastic container (19 x 28 cm) and were wetted with 60 ml of distilled water. Seeds of pig weed were sown on the filter papers and were germinated by keeping them in the dark at 27°C for 3 days. Seedlings of uniform size were chosen and were cut at the upper part of the hypocotyl and the seed coats were removed. This cotyledon with hypocotyl of 3-4 mm in length was used for assay.
Two sheets of filter paper were put double in a glass tubular bottle 32 mm in inner diameter and 1 ml of 0.0065M potassium phosphate buffer solution (pH: 6.3) containing a given concentration of the candidate compound, benzyladenine or zeatin and 0.5 g/l of tyrosine was added therein and ten of the above cotyledon sections were arranged therein and kept at 27°C for 20 hours in the dark. These ten cotyledon sections were put in a test tube containing 3 ml of distilled water and betacyanin was extracted by repeating thrice freezing and thawing. Absorbance of the solution was measured and the amount of the dye was calculated by the difference between the absorbance at 542 nm and at 620 nm. For the untreated group, 0.0065M potassium phosphate buffer solution (pH: 6.3) containing 0.5 g/l of tyrosine was used.

Water solubility = format: physicochemical
Procedure: Water solubility of adenine derivatives of the present invention and representative known cytokinin substances was measured and the results are shown in Table 7. […]

[3] = test system: Rice seeds (var.: Nankin No. 11) leaf section; experiment: Assay of cytokinin activity by measurement of chlorophyll content (senescence retardation of rice leaf sections); format: cell-based, Rice (var.: Nankin No. 11); settings: dark, 30°C, 3 days
Procedure: Rice seeds (var.: Nankin No. 11) were sown in soil mixed with fertilizer in a seed box and raised for about one month in a greenhouse (25°C in the daytime and 15°C in the night).
A leaf section 1 cm long was cut off from the center of the fourth leaf of the seedlings at the sixth leaf stage. Five leaf sections as one group which had been cut off were floated on the surface of an aqueous solution (2 ml) of the candidate compound or benzyl adenine at a given concentration contained in a glass tubular bottle of 32 mm in inner diameter. This was left to stand in the dark at 30°C for 3 days. The leaf sections were taken out and put in a test tube containing 10 ml of 80% ethanol and the glass tube was immersed in a water bath of 80°C for 20 minutes to extract chlorophyll. After cooling, 80% ethanol was added to make up to 10 ml and absorbance at 665 nm was measured. For the untreated group, water was used in place of the candidate solution in all examples.
Senescence retardation was determined according to the degree of chlorophyll retention, that is, calculated using the following formula (in all examples). [formula] • (A) : Absorbance of treated group after 3 days • (B) : Absorbance of untreated group after 3 days • (C) : Absorbance of leaves before treatment.

wheat shoots = experiment: Absorption from the base of wheat shoots and translocation (senescence retardation of leaf sections); format: cell-based, wheat [var.: Yukichabo (Triticum astivum)]; settings: for The senescence retardation (%): 10 mg/l taken up from shoot base for 18 hours
Procedure: Wheat seedlings were grown to a height of 14-15 cm in the same manner as in the above Example 8 test (1) and the shoot was cut off at the base. These sections were used for the test.
A solution (10 ml) containing 10 mg/l of the candidate compound or benzyladenine was poured into a test tube 2.5 cm in diameter and five of the wheat shoots as one group were inserted in one test tube containing the candidate solution and left at 25°C for 18 hours under irradiation with light of 1500 Lx. Thereafter, each of the shoots was cut at 5-6 cm, 8-9 cm and 11-12 cm from the above cut end and five of the respective sections as one group were floated on the surface of distilled water (2 ml) in a glass tubular bottle 32 mm in inner diameter with the upper surface of the leaves being uppermost. These were left at 25°C for 3 days in the dark and thereafter, the leaf sections were put in a test tube containing 10 ml of 80% ethanol. This test tube was immersed in a water bath at 80°C for 20 minutes to extract chlorophyll. After cooling, 80% ethanol was added to make up to 10 ml and absorbance of the solution at 665 nm was measured. In the same manner as in the above Example 8 test (1), senescence retardation was obtained.

leaf section of wheat = experiment: Activity on leaf section of wheat (senescence retardation, chlorophyll retention); format: cell-based, wheat [var.: Yukichabo (Triticum astivum)]; settings: wheat leaf sections, 25°C, 4 days, dark
Procedure: Seeds of wheat [var.: Yukichabo (Triticum astivum)] were sown in vermiculite packed in a seed-bed box and were sprouted by keeping them at 28°C for 2 days in the dark. The seedlings wera grown at 25°C for 5 days under irradiation with light of 1500 Lx. When they grew to a length of 12 - 13 cm, a portion having a length of 1 cm was cut off from the leaf in the region 2 - 5 cm from the tip of the first true leaf. Five of the leaf sections as one group were floated with the upper surface of the leaf being uppermost on the surface of aqueous solution (2 ml) of a given concentration of the candidate compound or benzyladenine contained in a glass tubular bottle 32 mm in inner diameter. These were placed at 25°C for 4 days in the dark and thereafter, these leaf sections were put in a test tube containing 10 ml of 80% ethanol and this test tube was immersed in a water bath at 80°C for 20 minutes to extract chlorophyll. After cooling, 80% ethanol was added to make up to 10 ml and absorbance at 665 nm was measured. Senescence retardation was determined according to the degree of retention of chlorophyll. For the untreated group, water was used in place of the aqueous solution of candidate compound.

[4] = region of leaf section 5-6 (cm) from cut end
[5] = region of leaf section 8-9 (cm) from cut end
[6] = region of leaf section 11-12 cm from cut end

Compound | The weight of soybean callus formed ([1]; 0.001 mg/l) [mg] | The weight of soybean callus formed ([1]; 0.01 mg/l) [mg] | The weight of soybean callus formed ([1]; 0.1 mg/l) [mg] | The amount of betacyanin produced (difference between absorbance at 542 nm and 620 nm) ([2]; 0.001 mg/l) | The amount of betacyanin produced (difference between absorbance at 542 nm and 620 nm) ([2]; 0.01 mg/l) | The amount of betacyanin produced (difference between absorbance at 542 nm and 620 nm) ([2]; 0.1 mg/l) | The amount of betacyanin produced (difference between absorbance at 542 nm and 620 nm) ([2]; 1.0 mg/l) | The senescence retardation (%) ([3]; 0.001 mg/l) | The senescence retardation (%) ([3]; 0.01 mg/l) | The senescence retardation (%) ([3]; 0.1 mg/l) | The senescence retardation (%) ([3]; 1.0 mg/l) | The senescence retardation (%) (wheat shoots; [4]) | The senescence retardation (%) (wheat shoots; [5]) | The senescence retardation (%) (wheat shoots; [6]) | The senescence retardation (%) (leaf section of wheat; 0.0001 mg/l) | The senescence retardation (%) (leaf section of wheat; 0.001 mg/l) | The senescence retardation (%) (leaf section of wheat; 0.01 mg/l) | The senescence retardation (%) (leaf section of wheat; 0.1 mg/l) | The senescence retardation (%) (leaf section of wheat; 1.0 mg/l) | The senescence retardation (%) (leaf section of wheat; 10 mg/l) | further results
c1ccc(CNc2ncnc3nc[nH]c23)cc1 [Benzyladenine, 6-benzylaminopurine, reference compound] | 76 | 836 | 674 | 0.038 | 0.076 | 0.192 | 0.260 | 17 | 64 | 93 | 93 | 17 | 21 | 14 | 7 | 15 | 50 | 55 | 74 | 75 | solubility (Water solubility): 0.03 mg/mL (≈ 0.133 mM)
CON(C)CCNc1ncnc2nc[nH]c12 [MAED, N⁶-[2-(N-methoxy-N-methylamino)ethyl]adenine] | 97 | 182 | 654 | 0.040 | 0.058 | 0.121 | 0.214 | 14 | 60 | 100 | 95 | 37 | 34 | 20 | 4 | 14 | 43 | 56 | 58 | 76 | The weight of soybean callus formed ([1]; 1.0 mg/l): 823 mg; The weight of soybean callus formed ([1]; 10 mg/l): 705 mg; solubility (Water solubility; 20°C, read-out: Solubility (g/100 g H₂O) (20°C)): 99 mg/mL (≈ 445 mM); senescence retardation compared with benzyladenine (absorbability and translocation) (wheat shoots; all regions of the first true leaf of wheat, result in words): more pronounced effect of senescence retardation than benzyladenine in all regions
